Test results from PubChem BioAssay (NCI).
“And” between values parts separate entries of the source, which are not always exact repeats. Equal entries are not always repeated.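 Five concentrations, 48 hours, 96-well plates. GI50: concentration for 50% inhibition of growth. Definition used: TGI = concentration required for complete inhibition of growth.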 Where a SMILES comes first, the peptide text is derived from it. [ ]: non-standard residue; d: D form. The star is where a group is joined. Bn2Val = CC(C)[C@@H](C(=O)*)N(Cc1ccccc1)Cc1ccccc1; NH(3,4-diMeO-benzyl) = COc1ccc(CN*)cc1OC; NMeV = CN[C@H](C(=O)O)C(C)C; dNMeA = CN[C@H](C)C(=O)O

Columns and labels:
Test in all cases: inhibition of tumour cell growth, NCI panel, 48 h
DLD-1 colon = tested on: DLD-1 colon
RXF-631 renal = tested on: RXF-631 renal
XF 498 CNS = tested on: XF 498 CNS
KM20L2 colon = tested on: KM20L2 colon
PC-3 prostate = tested on: PC-3 prostate
MDA-N = tested on: MDA-N
T-47D breast = tested on: T-47D breast
BT-549 breast = tested on: BT-549 breast
MDA-MB-435 = tested on: MDA-MB-435

SMILES | TGI (DLD-1 colon) | TGI (RXF-631 renal) | TGI (XF 498 CNS) | TGI (KM20L2 colon) | TGI (T-47D breast) | TGI (BT-549 breast) | TGI (MDA-MB-435) | also measured
O=C1CC[C@H]2CNC(=O)C[C@H]2C1 | > 100 µM | > 100 µM | > 100 µM |  |  |  |  | 
O=[N+]([O-])c1ccc(NSc2ccccc2)cc1 | 64 µM |  | 95.3 µM | > 100 µM |  |  |  | 
O=C(O)/C=C/C(=O)Nc1ncn[nH]1 |  |  |  |  | > 100 µM | > 100 µM | > 100 µM | TGI (PC-3 prostate): > 100 µM; TGI (MDA-N): > 100 µM
Cc1cccc2c3ccc4c(c3n(C)c12)C(=O)C=CC4=O | > 100 µM | > 100 µM |  |  |  |  |  | 
COc1ccc(N=Cc2cc(OC)c(OC)c(OC)c2)cc1 | > 100 µM |  | > 100 µM | > 100 µM |  |  |  | 
CN(C)CCNC(=O)c1cccc2nc3c(Cl)cccc3nc12 | 42.2 µM | > 100 µM | 11.7 µM | 32.2 µM |  |  |  | 
C[C@]12CCC(=O)C=C1CC[C@@H]1C2CC[C@]2(C)NC(=O)C(C#N)CC12 (stereo not given in full) | > 100 µM |  | > 100 µM | > 100 µM |  |  |  | 
O=S(=O)(O)C(O)/C=C/c1ccccc1 (stereo not given) | > 100 µM |  |  | > 100 µM |  |  |  | 
C/C(=N\NC(N)=S)c1ccc(C)cc1C | > 100 µM | > 100 µM | > 100 µM | > 100 µM |  |  |  | 
OCc1c(-c2cccc3ccccc23)sc(-c2cccc3ccccc23)c1CO |  | 37.9 µM | 19.3 µM | 24.6 µM |  |  |  | 
OCCNCO |  |  | > 100 µM | > 100 µM |  |  |  | 
CC(C)(C)C1=NC(S)NC(CCC(=O)Nc2ccccc2[N+](=O)[O-])=C1 (stereo not given) | > 100 µM | > 100 µM |  | > 100 µM |  |  |  | 
COc1ccc(CNC(=O)[C@@H](C)N(C)C(=O)[C@@H]2CCCN2C(=O)[C@H](C(C)C)N(C)C(=O)[C@@H](NC(=O)[C@H](C(C)C)N(Cc2ccccc2)Cc2ccccc2)C(C)C)cc1OC (Bn2Val-V[NMeV]P[dNMeA]-{NH(3,4-diMeO-benzyl)}) |  |  |  |  | 50 µM and 81.1 µM | 15.1 µM and 27.1 µM | 19.7 µM and 24.1 µM | GI50 (PC-3 prostate): 5.61 µM; TGI (PC-3 prostate): 26 µM and 24.5 µM; GI50 (MDA-N): 11.7 µM; TGI (MDA-N): 20.2 µM and 24.9 µM; GI50 (BT-549 breast): 9.43 µM; GI50 (MDA-MB-435): 11.1 µM
O=C(/C=C(\[O-])c1ccccc1)CCCCCCC(=O)/C=C(\[O-])c1ccccc1.O=C(/C=C(\[O-])c1ccccc1)CCCCCCC(=O)/C=C(\[O-])c1ccccc1.O=C(/C=C(\[O-])c1ccccc1)CCCCCCC(=O)/C=C(\[O-])c1ccccc1.[La+3].[La+3] |  |  |  | > 50 µM |  |  |  | GI50 (KM20L2 colon): > 50 µM
COc1cc2c(cc1O)[C@H](Cc1ccc(Oc3cc(C[C@H]4c5cc(OC)c(OC)cc5CCN4C)ccc3OC)cc1)NCC2 |  | 32 µM | 24 µM | 22.7 µM |  |  |  | 
O=C1/C(=C/c2ccccc2)CN(C(=O)Oc2ccc(Cl)cc2)C/C1=C\c1ccccc1 | 3.61 µM |  | 5.71 µM | 8.28 µM |  |  |  | 
COc1cc([C@@H]2c3cc4c(cc3[C@@H](NC(=O)c3cccc([N+](=O)[O-])c3)C3COC(=O)[C@@H]32)OCO4)cc(OC)c1O (stereo not given in full) | > 67.9 µM | 18.8 µM |  | > 57.7 µM |  |  |  | 
Cc1c(C(=O)/C=C/c2cccc3ccccc23)[n+](=O)c2ccccc2n1[O-] | 23.3 µM | 56.4 µM |  | 27.9 µM |  |  |  | 
O=C1CCC(NC(=O)c2ccccc2)C(=O)N1 (stereo not given) |  |  |  |  | > 100 µM | > 100 µM | > 100 µM | TGI (PC-3 prostate): > 100 µM; TGI (MDA-N): > 100 µM
CN(C)c1ccc(/C=C2\C[N+](C)(C)C/C(=C\c3ccc(N(C)C)cc3)C2=O)cc1 | > 100 µM |  |  | 27.7 µM | 46.6 µM | 34.3 µM | 30 µM | 
O=C1NC(=O)C2C(=O)NC(=O)C1C2(c1ccccc1)c1ccc(Cl)cc1 (stereo not given) | > 100 µM |  | > 100 µM | > 100 µM |  |  |  | 
N#Cc1cnn2ccn(C3OC(COC(=O)c4ccccc4)C(OC(=O)c4ccccc4)C3OC(=O)c3ccccc3)c12 (stereo not given) |  |  |  |  | 21.5 µM | > 100 µM | > 21.5 µM | TGI (PC-3 prostate): 21.5 µM; TGI (MDA-N): > 21.5 µM
CCOc1ccc2nc(NC(=O)/C(CC(=O)CC(C3=C(O)c4ccccc4CC3=O)c3ccccc3)=N\O)sc2c1 (stereo not given) |  |  |  |  | > 100 µM | > 100 µM | > 100 µM | TGI (PC-3 prostate): > 100 µM; TGI (MDA-N): > 100 µM
Cc1nc2nnc(C)n2c2c1C(=O)Nc1ccccc1N2 | > 100 µM |  | > 100 µM | > 100 µM |  |  |  | 
CN(C)c1ccc2c(c1)oc(=O)c1ccccc12 |  |  |  |  | 28.4 µM | 17.1 µM | 23.1 µM | TGI (PC-3 prostate): 30.5 µM; TGI (MDA-N): 26.7 µM
CC1=C(CCCOC(=O)NCCCl)C2=C(C)C3(CC3)[C@@](C)(O)C(=O)C2=C1 |  |  |  |  | > 100 µM | 6.66 µM | 99.4 µM | GI50 (PC-3 prostate): 4.01 µM; TGI (PC-3 prostate): > 100 µM; GI50 (T-47D breast): 3.36 µM; GI50 (BT-549 breast): 2.08 µM; GI50 (MDA-MB-435): 5.07 µM
CCCCCCCCCCCCCCC1OC(=O)c2ccccc21 (stereo not given) | > 100 µM | > 100 µM |  | > 100 µM |  |  |  | 
CC(=O)c1ccc(N(/C=C/C(=O)C(F)(F)F)CC(=O)c2ccc(Cl)c(Cl)c2)cc1 |  |  |  |  | 75.4 µM | 38.9 µM | 11.7 µM | GI50 (PC-3 prostate): 11.5 µM; TGI (PC-3 prostate): 30.2 µM; GI50 (T-47D breast): 26.4 µM; GI50 (BT-549 breast): 19.9 µM; GI50 (MDA-MB-435): 3.43 µM
